Article PMC8015083 (ACS Omega, 2021)
In brackets after ≈: the same amount, converted by molar mass. Several values for one entry are separate records, joined by “and”; a condition that tells them apart may be missing. Equal values may be shown once. Read-outs that look alike come from different tables or passages of the source.

Experiments:
[1] = tested on: C. neoformans; assay: microbe, parasite or virus in culture; type: cell-based, Cryptococcus neoformans; details: for MIC80: Cryptococcus neoformans
[2] = tested on: C. neoformans KN99; assay: microbe, parasite or virus in culture; type: cell-based; details: Cryptococcus neoformans, KN99, 48 h, read-out: C. neo MIC80
[3] = tested on: M. furfur; assay: microbe, parasite or virus in culture; type: cell-based; details: Malassezia furfur, read-out: MIC80 in M. furfur
[4] = tested on: M. pachydermatis; assay: microbe, parasite or virus in culture; type: cell-based; details: Malassezia pachydermatis, read-out: MIC80 in M. pachydermatis
[5] = tested on: C. neoformans KN99; type: cell-based, Cryptococcus neoformans
[6] = tested on: C. neoformans KN99; type: cell-based, Cryptococcus neoformans; remark: listed apart in the source
[7] = tested on: C. neoformans aox1Δ strain; type: cell-based, Cryptococcus neoformans
[8] = human, in vivo; cited from earlier work

Compound: C[C@@H]1[C@H](O)[C@@H](C)/C=C/C=C/C=C/C=C/C=C/C=C/C=C/[C@H](O[C@@H]2O[C@H](C)[C@@H](O)[C@H](N)[C@@H]2O)C[C@@H]2O[C@](O)(C[C@@H](O)C[C@@H](O)[C@H](O)CC[C@@H](O)C[C@@H](O)CC(=O)O[C@H]1C)C[C@H](O)[C@H]2C(=O)O [AMB, amphotericin B]
- MIC80 ([1]; read-out: MIC80 alone, AMB): 1.5 µM (≈ 1.39 µg/mL)

Compound: Cc1cc(-c2ccc(S(=O)(=O)O)cc2)c2ccc3c(-c4ccc(S(=O)(=O)O)cc4)cc(C)nc3c2n1 [BCS, bathocuproinedisulfonic acid]
- MIC80 alone, BCS [1]: >200 µM

Compound: Cc1cc(C2CCCCC2)n(O)c(=O)c1 [CPO, Ciclopirox olamine]
- MIC [2]: 0.87 µM and 0.18 µg/mL
- MIC80 [3]: ~25 µM (≈ 5.18 µg/mL)
- MIC80 [4]: ~25 µM (≈ 5.18 µg/mL)
- killing of the cells [5]: 99.9%
- FICI [1]: 0.75
- rescue of inhibition by exogenous copper [6]: partially rescued
- rescue of inhibition by exogenous iron [6]: fully rescued
- rescue of inhibition by zinc [6]: did not rescue
- MIC80 in aox1Δ strain compared with wild type [7]: no difference in sensitivity
- tolerability of oral dosing [8]: well tolerated

Compound: Cc1c(O)c(=O)ccn1C [DFP, deferiprone]
- MIC80 alone, DFP [1]: 200 µM (≈ 27.8 µg/mL)
- MIC80 ([1]; read-out: MIC80 alone, DFP): > 200 µM

Compound: OC(Cn1cncn1)(Cn1cncn1)c1ccc(F)cc1F [FLC, fluconazole]
- MIC80 ([1]; read-out: MIC80 alone, FLC): 3 µM (≈ 0.919 µg/mL)

Compound: O=C(NO)c1ccccc1O [SHAM, salicylhydroxamic acid]
- MIC80 ([1]; read-out: MIC80 alone, SHAM): 2000 µM (≈ 306 µg/mL)

Compound: Cc1cc(CC2CCCCC2)n(O)c(=O)c1 [SLU-2321]
- FICI [1]: 0.63
- FICI in combination with CPO [1]: 0.51
- rescue of inhibition by exogenous copper [6]: only partially rescued
- rescue of inhibition by exogenous iron [6]: fully rescued
- rescue of inhibition by zinc [6]: did not rescue

Compound: Cc1cc(Cc2ccc(Cl)cc2)n(O)c(=O)c1 [SLU-2707]
- FICI [1]: 0.63
- FICI in combination with CPO [1]: 0.37
- rescue of inhibition by exogenous copper [6]: did not rescue
- rescue of inhibition by exogenous iron [6]: fully rescued
- rescue of inhibition by zinc [6]: did not rescue

Compound: O=C(O)CC(=O)O [malonate]
- MIC80 ([1]; read-out: MIC80 alone, malonate): 25 µM (≈ 2.6 µg/mL)

Compound: CO/C(=C/C(N)=O)[C@H](C)[C@H](/C=C/c1csc(-c2csc([C@@H](C)/C=C/C=C/C(C)C)n2)n1)OC [myxothiazol]
- MIC80 alone, myxothiazol [1]: 5 µM (≈ 2.44 µg/mL)

Compound: Cc1ccc2ccc3ccc(C)nc3c2n1 [neocuproine]
- MIC80 ([1]; read-out: MIC80 alone, neocuproine): 0.25 µM (≈ 0.0521 µg/mL)

Compound: C=C(C)[C@H]1Cc2c(ccc3c2O[C@@H]2COc4cc(OC)c(OC)cc4[C@@H]2C3=O)O1 [rotenone]
- MIC80 ([1]; read-out: MIC80 alone, rotenone): 15 µM (≈ 5.92 µg/mL)
